Organism: Rattus norvegicus
Assay: DrugMatrix - Regimen: Daily Repeat
Format: toxicity, organism-based, Sprague-Dawley
Set-up: regimen Daily Repeat, gender Male, age 6-8 weeks
Settings: in vivo, po, route oral GAVAGE, vehicle .5 % CMC; for ABSOLUTE BASOPHIL / ABSOLUTE EOSINOPHIL / ABSOLUTE LYMPHOCYTE / ABSOLUTE MONOCYTE / ABSOLUTE SEGMENTED NEUTROPHIL / BASOPHIL / EOSINOPHIL / ERYTHROCYTE COUNT / HEMATOCRIT / HEMOGLOBIN / LEUKOCYTE COUNT / LYMPHOCYTE / MEAN CORPUSCULAR HEMOGLOBIN / MEAN CORPUSCULAR HEMOGLOBIN CONCENTRATION / MEAN CORPUSCULAR VOLUME / MONOCYTE / NEUTROPHIL / NUCLEATED RED BLOOD CELLS / PLATELET COUNT: tissue Blood; for ALANINE AMINOTRANSFERASE / ALBUMIN / ALKALINE PHOSPHATASE / ASPARTATE AMINOTRANSFERASE / BLOOD UREA NITROGEN / CARBON DIOXIDE / CHLORIDE / CHOLESTEROL / CREATINE PHOSPHOKINASE / CREATININE / GLUCOSE / LACTATE DEHYDROGENASE / LIPASE / PHOSPHORUS / POTASSIUM / SODIUM / TOTAL BILIRUBIN / TOTAL PROTEIN / URIC ACID: tissue Plasma
[1] = 60 mg/kg, 72 h, dose level Low, time 3 day
[2] = 60 mg/kg, 120 h, dose level Low, time 5 day
[3] = 1200 mg/kg, 72 h, dose level High, time 3 day
[4] = 1200 mg/kg, 120 h, dose level High, time 5 day

## CCS(=O)(=O)CCn1c([N+](=O)[O-])cnc1C [TINIDAZOLE]
[1]
  ABSOLUTE BASOPHIL: 0 CELLS/uL
  ABSOLUTE EOSINOPHIL: 339 CELLS/uL
  ABSOLUTE LYMPHOCYTE: 11000.67 CELLS/uL
  ABSOLUTE MONOCYTE: 171.33 CELLS/uL
  ABSOLUTE SEGMENTED NEUTROPHIL: 989 CELLS/uL
  BASOPHIL: 0%
  EOSINOPHIL: 2.67%
  ERYTHROCYTE COUNT: 5.79 x10E6/uL
  HEMATOCRIT: 34.93%
  HEMOGLOBIN: 13.13 G/DL
  LEUKOCYTE COUNT: 12.5 x10E3/uL
  LYMPHOCYTE: 88%
  MEAN CORPUSCULAR HEMOGLOBIN: 22.67 pg
  MEAN CORPUSCULAR HEMOGLOBIN CONCENTRATION: 37.67 G/DL
  MEAN CORPUSCULAR VOLUME: 60.2 fL
  MONOCYTE: 1.33%
  NEUTROPHIL: 8%
  NUCLEATED RED BLOOD CELLS: 0 /100WBC
  PLATELET COUNT: 1415.67 x10E3/uL
  ALANINE AMINOTRANSFERASE: 51.33 u/L
  ALBUMIN: 4.33 G/DL
  ALKALINE PHOSPHATASE: 361.33 u/L
  ASPARTATE AMINOTRANSFERASE: 96.67 u/L
  BLOOD UREA NITROGEN: 14.67 mg/dL
  CARBON DIOXIDE: 26 mmol/L
  CHLORIDE: 105 MEQ/L
  CHOLESTEROL: 71 mg/dL
  CREATINE PHOSPHOKINASE: 896 u/L
  CREATININE: 0.17 mg/dL
  GLUCOSE: 168 mg/dL
  LACTATE DEHYDROGENASE: 108.33 u/L
  LIPASE: 9 u/L
  PHOSPHORUS: 14.2 mg/dL
  POTASSIUM: 6.01 MEQ/L
  SODIUM: 145.6 MEQ/L
  TOTAL BILIRUBIN: 0.23 mg/dL
  TOTAL PROTEIN: 5.87 G/DL
  URIC ACID: 2.47 mg/dL
[2]
  ABSOLUTE BASOPHIL: 0 CELLS/uL
  ABSOLUTE EOSINOPHIL: 103.33 CELLS/uL
  ABSOLUTE LYMPHOCYTE: 13904.67 CELLS/uL
  ABSOLUTE MONOCYTE: 205.33 CELLS/uL
  ABSOLUTE SEGMENTED NEUTROPHIL: 1020 CELLS/uL
  BASOPHIL: 0%
  EOSINOPHIL: 0.67%
  ERYTHROCYTE COUNT: 5.73 x10E6/uL
  HEMATOCRIT: 35.5%
  HEMOGLOBIN: 13.43 G/DL
  LEUKOCYTE COUNT: 15.23 x10E3/uL
  LYMPHOCYTE: 91.33%
  MEAN CORPUSCULAR HEMOGLOBIN: 23.43 pg
  MEAN CORPUSCULAR HEMOGLOBIN CONCENTRATION: 37.83 G/DL
  MEAN CORPUSCULAR VOLUME: 61.97 fL
  MONOCYTE: 1.33%
  NEUTROPHIL: 6.67%
  NUCLEATED RED BLOOD CELLS: 0.33 /100WBC
  PLATELET COUNT: 1361.67 x10E3/uL
  ALANINE AMINOTRANSFERASE: 48 u/L
  ALBUMIN: 4.23 G/DL
  ALKALINE PHOSPHATASE: 407 u/L
  ASPARTATE AMINOTRANSFERASE: 87 u/L
  BLOOD UREA NITROGEN: 18 mg/dL
  CARBON DIOXIDE: 26.33 mmol/L
  CHLORIDE: 107 MEQ/L
  CHOLESTEROL: 76.33 mg/dL
  CREATINE PHOSPHOKINASE: 445.33 u/L
  CREATININE: 0.21 mg/dL
  GLUCOSE: 165.33 mg/dL
  LACTATE DEHYDROGENASE: 155 u/L
  LIPASE: 9 u/L
  PHOSPHORUS: 13.63 mg/dL
  POTASSIUM: 6.07 MEQ/L
  SODIUM: 145.9 MEQ/L
  TOTAL BILIRUBIN: 0.17 mg/dL
  TOTAL PROTEIN: 6.5 G/DL
  URIC ACID: 2.07 mg/dL
[3]
  ABSOLUTE BASOPHIL: 0 CELLS/uL
  ABSOLUTE EOSINOPHIL: 0 CELLS/uL
  ABSOLUTE LYMPHOCYTE: 8834.67 CELLS/uL
  ABSOLUTE MONOCYTE: 232.67 CELLS/uL
  ABSOLUTE SEGMENTED NEUTROPHIL: 799.33 CELLS/uL
  BASOPHIL: 0%
  EOSINOPHIL: 0%
  ERYTHROCYTE COUNT: 5.53 x10E6/uL
  HEMATOCRIT: 35.63%
  HEMOGLOBIN: 13.37 G/DL
  LEUKOCYTE COUNT: 9.87 x10E3/uL
  LYMPHOCYTE: 89.67%
  MEAN CORPUSCULAR HEMOGLOBIN: 24.17 pg
  MEAN CORPUSCULAR HEMOGLOBIN CONCENTRATION: 37.57 G/DL
  MEAN CORPUSCULAR VOLUME: 64.4 fL
  MONOCYTE: 2.33%
  NEUTROPHIL: 8%
  NUCLEATED RED BLOOD CELLS: 0 /100WBC
  PLATELET COUNT: 1043.67 x10E3/uL
  ALANINE AMINOTRANSFERASE: 47 u/L
  ALBUMIN: 4.5 G/DL
  ALKALINE PHOSPHATASE: 362.67 u/L
  ASPARTATE AMINOTRANSFERASE: 80.33 u/L
  BLOOD UREA NITROGEN: 15.33 mg/dL
  CARBON DIOXIDE: 28 mmol/L
  CHLORIDE: 106 MEQ/L
  CHOLESTEROL: 89.33 mg/dL
  CREATINE PHOSPHOKINASE: 226.67 u/L
  CREATININE: 0.24 mg/dL
  GLUCOSE: 123 mg/dL
  LACTATE DEHYDROGENASE: 186 u/L
  LIPASE: 9.33 u/L
  PHOSPHORUS: 11.47 mg/dL
  POTASSIUM: 6.78 MEQ/L
  SODIUM: 150.07 MEQ/L
  TOTAL BILIRUBIN: 0.3 mg/dL
  TOTAL PROTEIN: 6.13 G/DL
  URIC ACID: 1 mg/dL
[4]
  ABSOLUTE BASOPHIL: 0 CELLS/uL
  ABSOLUTE EOSINOPHIL: 57.67 CELLS/uL
  ABSOLUTE LYMPHOCYTE: 15287.67 CELLS/uL
  ABSOLUTE MONOCYTE: 50.33 CELLS/uL
  ABSOLUTE SEGMENTED NEUTROPHIL: 2437.67 CELLS/uL
  BASOPHIL: 0%
  EOSINOPHIL: 0.33%
  ERYTHROCYTE COUNT: 5.86 x10E6/uL
  HEMATOCRIT: 35.6%
  HEMOGLOBIN: 13.2 G/DL
  LEUKOCYTE COUNT: 17.83 x10E3/uL
  LYMPHOCYTE: 85%
  MEAN CORPUSCULAR HEMOGLOBIN: 22.53 pg
  MEAN CORPUSCULAR HEMOGLOBIN CONCENTRATION: 37.07 G/DL
  MEAN CORPUSCULAR VOLUME: 60.8 fL
  MONOCYTE: 0.33%
  NEUTROPHIL: 14.33%
  NUCLEATED RED BLOOD CELLS: 0 /100WBC
  PLATELET COUNT: 1437 x10E3/uL
  ALANINE AMINOTRANSFERASE: 43.33 u/L
  ALBUMIN: 4.3 G/DL
  ALKALINE PHOSPHATASE: 276.33 u/L
  ASPARTATE AMINOTRANSFERASE: 79.67 u/L
  BLOOD UREA NITROGEN: 19.33 mg/dL
  CARBON DIOXIDE: 25 mmol/L
  CHLORIDE: 105 MEQ/L
  CHOLESTEROL: 76.67 mg/dL
  CREATINE PHOSPHOKINASE: 212.67 u/L
  CREATININE: 0.29 mg/dL
  GLUCOSE: 152 mg/dL
  LACTATE DEHYDROGENASE: 226.67 u/L
  LIPASE: 8.67 u/L
  PHOSPHORUS: 12.57 mg/dL
  POTASSIUM: 6.85 MEQ/L
  SODIUM: 146.2 MEQ/L
  TOTAL BILIRUBIN: 0.13 mg/dL
  TOTAL PROTEIN: 6.7 G/DL
  URIC ACID: 2.17 mg/dL

— ChEMBL document CHEMBL3885881, “DrugMatrix”
